# Results as given in US8802597B2, “Herbicidal pyrimidines” (E I du Pont de Nemours and Company, priority 2003, dated 2014).
# Read-outs that look alike come from different tables or passages of the source.
# Legend:
# [1] = tested on: Italian ryegrass (Lolium multiflorum); assay: Test C postemergence; assay type: in vivo
# How it was run: (§1)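 Rating scale 0–100: 0 means no effect, 100 complete control; taken visually 12 to 14 days post-treatment versus controls. Pre- and postemergence greenhouse applications, postemergence at 1- to 4-leaf stage, non-phytotoxic solvent with surfactant as carrier.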
# [2] = tested on: blackgrass (Alopecurus myosuroides); assay: Test C postemergence; assay type: in vivo; details: for Plant response rating, Blackgrass: scale 0 to 100
# How it was run: as §1
# [3] = tested on: canarygrass (Phalaris minor); assay: Test C postemergence; assay type: in vivo; details: for Plant response rating, Canarygrass: scale 0 to 100
# How it was run: as §1
# [4] = tested on: downy brome (Bromus tectorum); assay: Test C postemergence; assay type: in vivo; details: for Plant response rating, Bromegrass, Downy: scale 0 to 100
# How it was run: as §1
# [5] = tested on: green foxtail (Setaria viridis); assay: Test C postemergence; assay type: in vivo
# How it was run: as §1
# [6] = tested on: wheat (Triticum aestivum); assay: Test C postemergence; assay type: in vivo
# How it was run: as §1
# [7] = tested on: wild oat (Avena fatua); assay: Test C postemergence; assay type: in vivo
# How it was run: as §1
# [8] = tested on: windgrass (Apera spica-venti); assay: Test C postemergence; assay type: in vivo
# How it was run: as §1
# [9] = tested on: winter barley (Hordeum vulgare); assay: Test C postemergence; assay type: in vivo; details: for Plant response rating, Barley: scale 0 to 100
# How it was run: as §1
# [10] = tested on: barnyardgrass (Echinochloa crus-galli); assay: Test C flooded paddy test; assay type: in vivo; details: Flood
# How it was run: (§2)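 Visual rating, 0 (no effect) to 100 (complete control), versus untreated plants. Flooded paddy; 2-leaf stage at treatment; greenhouse hold 12–14 d. Dash = no test result.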
# [11] = tested on: duck salad (Heteranthera limosa); assay: Test C flooded paddy test; assay type: in vivo; details: Flood, scale 0 to 100
# How it was run: as §2
# [12] = tested on: rice (Oryza sativa); assay: Test C flooded paddy test; assay type: in vivo; details: Flood, scale 0 to 100
# How it was run: as §2
# [13] = tested on: crabgrass (Digitaria sanguinalis); assay: Test A pre/postemergence; assay type: in vivo; details: Digitaria sanguinalis, 240 h, read-out: Plant response rating, Crabgrass; for pest or weed control at 500 g/ha: 500 g ai/ha; for pest or weed control at 2000 g/ha: 2000 g ai/ha
# How it was run: (§3)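 Visual injury scored 0–100 (0 = no effect, 100 = complete control) against untreated controls after about ten days in the greenhouse. Compounds, formulated in non-phytotoxic solvent plus surfactant, were applied preemergence as a directed soil spray and postemergence at the 1- to 2-leaf stage (2–10 cm).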
# [14] = tested on: morningglory (Ipomoea spp.); assay: Test A pre/postemergence; assay type: in vivo; details: Ipomoea, 240 h, read-out: Plant response rating, Morningglory; for pest or weed control at 500 g/ha: 500 g ai/ha; for pest or weed control at 2000 g/ha: 2000 g ai/ha
# How it was run: as §3
# [15] = tested on: redroot pigweed (Amaranthus retroflexus); assay: Test A pre/postemergence; assay type: in vivo; details: Amaranthus retroflexus, 240 h, read-out: Plant response rating, Pigweed; for pest or weed control at 500 g/ha: 500 g ai/ha; for pest or weed control at 2000 g/ha: 2000 g ai/ha
# How it was run: as §3
# [16] = tested on: velvetleaf (Abutilon theophrasti); assay: Test A pre/postemergence; assay type: in vivo; details: Abutilon theophrasti, 240 h, read-out: Plant response rating, Velvetleaf; for pest or weed control at 500 g/ha: 500 g ai/ha; for pest or weed control at 2000 g/ha: 2000 g ai/ha
# How it was run: as §3
# [17] = 500 g ai/ha, scale 0 to 100 (0 no effect, 100 complete control)
# [18] = post-emergence, Postemergence, 0 to 100 scale (0 no effect, 100 complete control)
# [19] = pre-emergence, Preemergence, 0 to 100 scale where 0 is no effect and 100 is complete control, approximately ten days
# [20] = pre-emergence, Preemergence, 0 to 100 scale (0 no effect, 100 complete control)
compound,measurement,setting,value
"COC(=O)c1nc(C2CC2)nc(N)c1Br [Compound 2, methyl 6-amino-5-bromo-2-cyclopropyl-4-pyrimidinecarboxylate]","Plant response rating (scale of 0 to 100), Ryegrass, Italian",[1]; 31 g ai/ha,35
same,"Plant response rating, Ryegrass, Italian","[1]; 250 g ai/ha, scale 0 to 100",60
same,pest or weed control at 62 g/ha,"[1]; Lolium multiflorum, post-emergence, 62 g ai/ha, scale 0 to 100 (0 no effect, 100 complete control), read-out: Ryegrass, Italian plant response rating",45%
same,pest or weed control at 125 g/ha,"[1]; Lolium multiflorum, post-emergence, 125 g ai/ha, scale 0 to 100 (0 no effect, 100 complete control), read-out: Ryegrass, Italian plant response rating",60%
same,"Plant response rating (scale of 0 to 100), Blackgrass",[2]; 31 g ai/ha,60
same,"Plant response rating, Blackgrass",[2]; 125 g ai/ha,70
same,"Plant response rating, Blackgrass",[2]; 250 g ai/ha,75
same,pest or weed control at 62 g/ha,"[2]; Alopecurus myosuroides, post-emergence, 62 g ai/ha, scale 0 to 100 (0 no effect, 100 complete control), read-out: Blackgrass plant response rating",65%
same,"Plant response rating (scale of 0 to 100), Canarygrass",[3]; 31 g ai/ha,30
same,"Plant response rating, Canarygrass",[3]; 125 g ai/ha,40
same,"Plant response rating, Canarygrass",[3]; 250 g ai/ha,40
same,pest or weed control at 62 g/ha,"[3]; Phalaris minor, post-emergence, 62 g ai/ha, scale 0 to 100 (0 no effect, 100 complete control), read-out: Canarygrass plant response rating",40%
same,"Plant response rating (scale of 0 to 100), Bromegrass, Downy",[4]; 31 g ai/ha,20
same,"Plant response rating, Bromegrass, Downy",[4]; 125 g ai/ha,45
same,"Plant response rating, Bromegrass, Downy",[4]; 250 g ai/ha,60
same,pest or weed control at 62 g/ha,"[4]; Bromus tectorum, post-emergence, 62 g ai/ha, scale 0 to 100 (0 no effect, 100 complete control), read-out: Bromegrass, Downy plant response rating",35%
same,"Plant response rating (scale of 0 to 100), Foxtail, Green",[5]; 31 g ai/ha,55
same,"Plant response rating, Foxtail, Green","[5]; 250 g ai/ha, scale 0 to 100",70
same,pest or weed control at 62 g/ha,"[5]; Setaria viridis, post-emergence, 62 g ai/ha, scale 0 to 100 (0 no effect, 100 complete control), read-out: Foxtail, Green plant response rating",55%
same,pest or weed control at 125 g/ha,"[5]; Setaria viridis, post-emergence, 125 g ai/ha, scale 0 to 100 (0 no effect, 100 complete control), read-out: Foxtail, Green plant response rating",65%
same,"Plant response rating (scale of 0 to 100), Wheat",[6]; 31 g ai/ha,20
same,"Plant response rating, Wheat","[6]; 250 g ai/ha, scale 0 to 100",65
same,plant injury at 62 g/ha,"[6]; Triticum aestivum, post-emergence, 62 g ai/ha, scale 0 to 100 (0 no effect, 100 complete control), read-out: Wheat plant response rating",60%
same,plant injury at 125 g/ha,"[6]; Triticum aestivum, post-emergence, 125 g ai/ha, scale 0 to 100 (0 no effect, 100 complete control), read-out: Wheat plant response rating",65%
same,"Plant response rating (scale of 0 to 100), Oat, Wild",[7]; 31 g ai/ha,20
same,"Plant response rating, Oat, Wild","[7]; 250 g ai/ha, scale 0 to 100",60
same,pest or weed control at 62 g/ha,"[7]; Avena fatua, post-emergence, 62 g ai/ha, scale 0 to 100 (0 no effect, 100 complete control), read-out: Oat, Wild plant response rating",55%
same,pest or weed control at 125 g/ha,"[7]; Avena fatua, post-emergence, 125 g ai/ha, scale 0 to 100 (0 no effect, 100 complete control), read-out: Oat, Wild plant response rating",55%
same,"Plant response rating (scale of 0 to 100), Windgrass",[8]; 31 g ai/ha,65
same,"Plant response rating, Windgrass","[8]; 250 g ai/ha, scale 0 to 100",70
same,pest or weed control at 62 g/ha,"[8]; Apera spica-venti, post-emergence, 62 g ai/ha, scale 0 to 100 (0 no effect, 100 complete control), read-out: Windgrass plant response rating",65%
same,pest or weed control at 125 g/ha,"[8]; Apera spica-venti, post-emergence, 125 g ai/ha, scale 0 to 100 (0 no effect, 100 complete control), read-out: Windgrass plant response rating",70%
same,"Plant response rating (scale of 0 to 100), Barley",[9]; 31 g ai/ha,0
same,"Plant response rating, Barley",[9]; 125 g ai/ha,60
same,"Plant response rating, Barley",[9]; 250 g ai/ha,60
same,plant injury at 62 g/ha,"[9]; Hordeum vulgare, post-emergence, 62 g ai/ha, scale 0 to 100 (0 no effect, 100 complete control), read-out: Barley plant response rating",35%
same,"Plant response rating, Barnyardgrass","[10]; 62 g ai/ha, scale 0 to 100",0
same,"Plant response rating, Barnyardgrass","[10]; 125 g ai/ha, scale 0 to 100",20
same,"Plant response rating, Barnyardgrass","[10]; 250 g ai/ha, scale 0 to 100",45
same,"Plant response rating, Barnyardgrass",[10]; [17],75
same,"Plant response rating, Ducksalad",[11]; 62 g ai/ha,50
same,"Plant response rating, Ducksalad",[11]; 125 g ai/ha,70
same,"Plant response rating, Ducksalad",[11]; 250 g ai/ha,90
same,"Plant response rating, Ducksalad",[11]; 500 g ai/ha,95
same,"Plant response rating, Rice",[12]; 62 g ai/ha,0
same,"Plant response rating, Rice",[12]; 125 g ai/ha,25
same,"Plant response rating, Rice",[12]; 250 g ai/ha,45
same,"Plant response rating, Rice",[12]; 500 g ai/ha,65
same,melting point,,148 to 150 °C
"CCOC(=O)c1nc(C2CC2)nc(N)c1Br [Compound 1, ethyl 6-amino-5-bromo-2-cyclopropyl-4-pyrimidinecarboxylate]",pest or weed control at 500 g/ha,[13]; [18],65%
same,pest or weed control at 2000 g/ha,[13]; [18],80%
same,pest or weed control at 500 g/ha,[13]; [19],25%
same,pest or weed control at 2000 g/ha,[13]; [20],75%
same,pest or weed control at 500 g/ha,[14]; [18],95%
same,pest or weed control at 2000 g/ha,[14]; [18],100%
same,pest or weed control at 500 g/ha,[14]; [19],85%
same,pest or weed control at 2000 g/ha,[14]; [20],100%
same,pest or weed control at 500 g/ha,[15]; [18],100%
same,pest or weed control at 2000 g/ha,[15]; [18],100%
same,pest or weed control at 500 g/ha,[15]; [19],85%
same,pest or weed control at 2000 g/ha,[15]; [20],100%
same,pest or weed control at 500 g/ha,[16]; [18],95%
same,pest or weed control at 2000 g/ha,[16]; [18],85%
same,pest or weed control at 500 g/ha,[16]; [19],60%
same,pest or weed control at 2000 g/ha,[16]; [20],80%
same,"Plant response rating, Barnyardgrass","[10]; 62 g ai/ha, scale 0 to 100",0
same,"Plant response rating, Barnyardgrass","[10]; 125 g ai/ha, scale 0 to 100",0
same,"Plant response rating, Barnyardgrass","[10]; 250 g ai/ha, scale 0 to 100",15
same,"Plant response rating, Barnyardgrass",[10]; [17],25
same,"Plant response rating, Ducksalad",[11]; 62 g ai/ha,0
same,"Plant response rating, Ducksalad",[11]; 250 g ai/ha,0
same,"Plant response rating, Ducksalad",[11]; 500 g ai/ha,0
same,"Plant response rating, Rice",[12]; 62 g ai/ha,0
same,"Plant response rating, Rice",[12]; 125 g ai/ha,0
same,"Plant response rating, Rice",[12]; 250 g ai/ha,0
same,"Plant response rating, Rice",[12]; 500 g ai/ha,0
same,melting point,,107 to 108 °C
"Nc1nc(C2CC2)nc(C(=O)OCc2ccccc2)c1Br [Compound 22, phenylmethyl 6-amino-5-bromo-2-cyclopropyl-4-pyrimidinecarboxylate]","Plant response rating, Barnyardgrass","[10]; 62 g ai/ha, scale 0 to 100",0
same,"Plant response rating, Barnyardgrass","[10]; 125 g ai/ha, scale 0 to 100",0
same,"Plant response rating, Barnyardgrass","[10]; 250 g ai/ha, scale 0 to 100",40
same,"Plant response rating, Barnyardgrass",[10]; [17],70
same,"Plant response rating, Ducksalad",[11]; 62 g ai/ha,30
same,"Plant response rating, Ducksalad",[11]; 125 g ai/ha,60
same,"Plant response rating, Ducksalad",[11]; 250 g ai/ha,90
same,"Plant response rating, Ducksalad",[11]; 500 g ai/ha,95
same,"Plant response rating, Rice",[12]; 62 g ai/ha,20
same,"Plant response rating, Rice",[12]; 125 g ai/ha,20
same,"Plant response rating, Rice",[12]; 250 g ai/ha,40
same,"Plant response rating, Rice",[12]; 500 g ai/ha,60
same,melting point,,129 to 131 °C
